{
  "source": "patent US10017734B2",
  "about": "“Method for producing dopaminergic neurons” (TAKEDA PHARMACEUTICAL COMPANY LIMITED, priority 2013, dated 2018)",
  "type_in_all_cases": "cell-based",
  "key": {"[1]": {"system": "floor plate cells induced from human iPS cell (253G1 strain, 201B7 strain)", "assay": "NURR1 expression by quantitative RT-PCR on day 45 after differentiation of floor plate cells", "settings": "3 μM PD0325901 added in addition to ascorbic acid and dbcAMP", "method": "Floor plate cells were induced by a method similar to the methods described in Reference Examples 1 to 3, the medium was exchanged with (A) Neuro/B27 added with 3 factors of 0.1 mM ascorbic acid (SIGMA), 0.5 mM dibutyryl-cAMP (SIGMA, hereinafter to be indicated as dbcAMP) and 3 μM PD0325901, or (B) Neuro/B27 added with 2 factors of 0.1 mM ascorbic acid and 0.5 mM dbcAMP on day 13 of culture, and the cells were cultured at 37° C. under 5% CO2 for not less than 30 days. The medium was exchanged every 3-4 days during the above-mentioned culture periods. On day 45 of culture, the cells were recovered, and expression variation of NURR1 known as a transcription factor extremely important for the differentiation, maturation and maintenance of functions of midbrain dopaminergic neuron was examined."}, "[2]": {"system": "floor plate cells induced from human iPS cell (253G1 strain, 201B7 strain)", "assay": "Immunofluorescent staining of TH, NURR1 and FOXA2 proteins on days 45-52 of culture", "settings": "PD0325901 added to ascorbic acid and dbcAMP (Example 1, (A))", "method": "Then, the expression of midbrain dopaminergic neuron markers TH, NURR1 and FOXA2 proteins was examined by immunofluorescent staining using anti-TH antibody, anti-NURR1 antibody and anti-FOXA2 antibody. Floor plate cells were induced by a method similar to the methods described in Reference Examples 1 to 3, differentiation induction was performed by exchanging the medium with (A) Neuro/B27 added with 3 factors of ascorbic acid, dbcAMP and PD0325901, or (B) Neuro/B27 added with 2 factors of ascorbic acid and dbcAMP from day 13 of culture, 4% PFA was added on days 45-52 of culture, and the cells were fixed at room temperature for 30 min. The cells were reacted with anti-TH antibody (AB152, Nihon Millipore K.K.), anti-NURR1 antibody (PP-N1404-00, Perseus Proteomics) and anti-FOXA2 antibody (sc-6544, Santa Cruz) as the primary antibodies, and sequentially reacted with Alexa488-labeled secondary antibody, Alexa568-labeled secondary antibody and Alexa647-labeled secondary antibody, corresponding to the immunized animal of the primary antibody, as the secondary antibodies, and observed under a fluorescence microscope. […]"}, "[3]": {"system": "dopaminergic neuron induced from human iPS cell (253G1 strain, 201B7 strain)", "assay": "Ability to release dopamine by high-KCl stimulation on day 50 of culture", "settings": "HBSS with 55 mM KCl vs HBSS", "method": "Floor plate cells were induced by a method similar to the methods described in Reference Examples 1 to 3, differentiation induction was performed by exchanging the medium with (A) Neuro/B27 added with 3 factors of ascorbic acid, dbcAMP and PD0325901, or (B) Neuro/B27 added with 2 factors of ascorbic acid and dbcAMP from day 13 of culture, and an ability to release dopamine by stimulation with high-KCl was evaluated on day 50 of culture.\nThe above-mentioned evaluation was performed as follows. The medium of the cells after differentiation induction was exchanged with Neuro/B27, and the cells were cultured overnight. […] For the analysis, a trace biological sample analysis system and HTEC500 (Eicom Corporation), electrochemical detector EPC-500 (Eicom Corporation) were used, and the amount of dopamine contained in the sample was measured according to the manual of Eicom Corporation (Eicom information No. 25). […] However, when differentiation was induced using the aforementioned (A) Neuro/B27, an increase in the amount of dopamine released by stimulation with high-KCl could be detected with good reproducibility even in a different lot."}, "[4]": {"system": "floor plate cells induced from human iPS cell (253G1 strain, 201B7 strain)", "assay": "Study of various MEK inhibitors (including FGFR inhibitor): NURR1 expression by quantitative RT-PCR on day 45", "settings": "253G1 strain, added to ascorbic acid and dbcAMP, 3 μM PD0325901, 3 μM PD184352, 10 μM SU5402", "description": "Whether midbrain dopaminergic neuron can be induced in a medium containing any of PD184352 (Axon MedChem), SU5402 (FGF receptor (FGFR) inhibitor, Wako Pure Chemical Industries, Ltd.) and PD173074 (FGFR inhibitor, Axon MedChem) instead of PD0325901 in the aforementioned (A) Neuro/B27 was studied.\nFloor plate cells were induced by a method similar to the methods described in Reference Examples 1 to 3, the medium was exchanged with Neuro/B27 added with (1) 3 factors of ascorbic acid, dbcAMP and PD0325901, (2) 2 factors of ascorbic acid and dbcAMP, (3) ascorbic acid, dbcAMP and 3 μM PD184352, (4) ascorbic acid, dbcAMP and 10 μM SU5402, or (5) ascorbic acid, dbcAMP and 0.1 μM PD173074 on day 13 of culture, and the cells were cultured at 37° C. under 5% CO2 for not less than 30 days. The medium was exchanged every 3-4 days during the above-mentioned culture periods. On day 45 of culture, the cells were recovered, and expression variation of NURR1 was examined. In 253G1 strain, the expression of NURR1 was elevated by the addition of PD0325901, PD184352 or SU5402 and, in 201B7 strain, the expression of NURR1 was elevated by the addition of all 4 kinds."}, "[5]": {"system": "floor plate cells induced from human iPS cell (253G1 strain, 201B7 strain)", "assay": "TH and NURR1 expression by quantitative RT-PCR on day 26 of culture", "settings": "dbcAMP and activin A", "method": "Floor plate cells were induced by a method similar to the methods described in Reference Examples 1 to 3, the medium was exchanged with Neuro/B27 added with one or more kinds of 0.1 mM ascorbic acid, 0.5 mM dbcAMP, 3 μM PD0325901, and 20 ng/ml activin A (R&D), or Neuro/B27 without addition of ascorbic acid, dbcAMP, PD0325901, and activin A as a control on day 12 of culture, and the cells were cultured for 14 days more (total 26 days). The cells after culture were recovered, and the expression variation of TH and NURR1 was examined by a method similar to Reference Example 3. […] On the other hand, when ascorbic acid, dbcAMP and PD0325901 were added, the expression level was lower at the time point of day 26 of culture than the addition of ascorbic acid, dbcAMP and activin A."}, "[6]": {"system": "cryopreserved day 26 cells induced from human iPS cell (253G1 strain, 201B7 strain)", "assay": "Dopaminergic neuron marker expression by quantitative RT-PCR 2 weeks after thawing of cells cryopreserved on day 26", "settings": "Y27632 10 μM", "method": "Midbrain floor plate cells were induced by a method similar to the methods described in Reference Examples 1 to 3, the medium was exchanged with Neuro/B27 added with 0.1 mM ascorbic acid, 0.5 mM dbcAMP, 3 μM PD0325901, and 20 ng/ml activin A (R&D) on day 12 of culture, and the cells were cultured for 14 days more (total 26 days). After culture, the cells were washed with PBS, and dispersed by treating with Accutase (Innovative Cell Technologies) at 37° C. for 20-30 min. After centrifugal washing, the cells were suspended in cell banker 2 (Juji Field Inc.) at a concentration of about 2×10^6 cells/ml/tube, and cryopreserved at −80° C. The cryopreserved cells were thawed by immersion in a thermostatic tank at 37° C. and, after centrifugal washing, seeded in a 96 well plate at a density of 2×10^4 cells per well, and cultured at 37° C. under 5% CO2 for 2 weeks. As the above-mentioned 96 well plate, one coated at 37° C. overnight with Matrigel 1/30-1/40 diluted with DMEM/F12 (Life Technologies Corporation) or Laminin (Trevigen Inc.) diluted with DMEM/F12 at a concentration of 10 μg/ml was used. As the culture medium, Neuro/B27 added with one or more kinds of 0.1 mM ascorbic acid, 0.5 mM dbcAMP, 3 μM PD0325901, and 20 ng/ml activin A, or Neuro/B27 without addition of ascorbic acid, dbcAMP, PD0325901, and activin A as a control was used. […]"}, "[7]": {"system": "human iPS cell (253G1 strain, 201B7 strain)", "assay": "Time-course expression of differentiation markers by quantitative RT-PCR in the three-step differentiation system", "settings": "conditions excluding only purmorphamine (-Pur)", "method": "In step 1, the cells were cultured in Neuro/B27 added with 0.5 μM LDN193189, 10 μM SB431542, 0.5 μM purmorphamine, 200 ng/ml SHH and 1 μM CHIR99021 for 5 days. In step 2, the cells were cultured in Neuro/B27 added with 0.5 μM LDN193189 and 1 μM CHIR99021 for 8 days (total 13 days). In step 3, the cells were cultured in Neuro/B27 added with 0.1 mM ascorbic acid, 0.5 mM dbcAMP and 3 μM PD0325901 for 32 days (total 45 days). After culture, time-course expression variation of various differentiation markers was measured by a method similar to Reference Example 3.\nAs a control, the cells were cultured under conditions without addition of a differentiation inducing factor (− in Figure), conditions excluding only SHH (−SHH in Figure) or conditions excluding only purmorphamine (−Pur in Figure). Also, the group subjected to differentiation induction under the conditions shown in FIG. 9 from step 2 onward was studied."}},
  "data": [
    {"smiles": "O=C(NOC[C@H](O)CO)c1ccc(F)c(F)c1Nc1ccc(I)cc1F", "note": "[PD0325901, N-[(2R)-2,3-dihydroxypropoxy]-3,4-difluoro-2-[(2-fluoro-4-iodophenyl)amino]-benzamide]", "values": [
      {"measurement": "expression of NURR1", "setting": "[1]", "result": "further elevated highly"},
      {"measurement": "staining with NURR1 protein", "setting": "[2]", "result": "strongly-positive"},
      {"measurement": "increase in the amount of dopamine released by stimulation with high-KCl", "setting": "[3]", "result": "stably detected"},
      {"measurement": "expression of NURR1", "setting": "[4]", "result": "elevated"},
      {"measurement": "expression of TH and NURR1", "setting": "[5]; 3 μM PD0325901 added together with ascorbic acid", "result": "further elevated highly"},
      {"measurement": "expression level of TH and NURR1", "setting": "[5]; ascorbic acid, dbcAMP and PD0325901 compared with ascorbic acid", "result": "lower"}
    ]},
    {"smiles": "C[C@@H](N)[C@H]1CC[C@H](C(=O)Nc2ccncc2)CC1", "note": "[Y27632, (R)-(+)-trans-4-(1-aminoethyl)-N-(4-pyridyl)cyclohexanecarboxamide]", "values": [
      {"measurement": "expression levels of the markers, presence or absence of Y27632", "setting": "[6]", "result": "scarcely different"}
    ]},
    {"smiles": "c1ccc2c(Oc3nc(Nc4ccc(N5CCOCC5)cc4)c4ncn(C5CCCCC5)c4n3)cccc2c1", "note": "[purmorphamine, N-(4-morpholinophenyl)-2-(1-naphthyloxy)-9-cyclohexyl-9H-purin-6-amine]", "values": [
      {"measurement": "expression of FOXA2", "setting": "[7]", "result": "low"}
    ]}
  ]
}
